Reference: patent publication US20190070165A1, “N-HYDROXYISOQUINOLINEDIONE INHIBITORS OF HBV REPLICATION” (Saint Louis University, priority 2016, published 2019)
Like-named read-outs stand apart in the source and are kept apart here.

Experiments:
HBV replication = HBV replication inhibition assay in HepDES19 cells (strand-preferential q-PCR); type: cell-based, Hepatitis B virus; details: for EC50: Hepatitis B virus
Experimental: HBV replication assay. […] Cells were seeded into 6-well plates and incubated in DMEM/F12, 10% fetal bovine serum (FBS), 1% penicillin/streptomycin (P/S) with 1 μg/mL tetracycline. Tetracycline was withdrawn after 24 hours. The test compound was applied to duplicate wells 48 hours later in medium containing a final DMSO concentration of 1%, and medium containing the compound was refreshed daily for the following two days. Cells were harvested and non-encapsidated nucleic acids were digested with micrococcal nuclease (New England Biolabs). HBV DNA was purified from capsids using QIAamp Cador Pathogen Mini Kit (Qiagen) with proteinase K incubation overnight at 37° C. TaqMan PCR was performed for 40 cycles at an annealing temperature of 60° C.
Thirty-nine HID, HPD, flutimide, and related POH compounds (Structures shown in FIG. 3) were screened for their ability to inhibit HBV replication in HepDES19 cells. […] Inhibition was calculated as the amount of plus-polarity DNA relative to the DMSO treated controls.
Briefly, HepDES19 were seeded in 12-well plates at 2×10^5 cells per well in the absence of tetracycline. Test compound was applied to cells 48 hours after removal of tetracycline. […] HBV DNA was purified from capsids using a QIAamp pathogen minikit with proteinase K digestion extended to overnight at 37° C. TaqMan PCR was performed for 40 cycles with an annealing temperature of 60° C.

HSV-1 = HSV-1 replication inhibition assay in Vero cells; type: cell-based, herpes simplex virus 1; details: Human alphaherpesvirus 1, 24 h; 5 μM, Vero cells; read-out: HSV-1 suppression (log10 at 5 μM), class symbol
Experimental: Thirty-seven compounds were counter-screened for efficacy against HSV-1 to evaluate specificity of the inhibitors and to help determine if the efficacy against HBV replication may be due to an unsuspected indirect effect on the cells. Vero cells infected with HSV-1 at an MOI of 0.1 were treated with 5 μM of compound for 24 hours. Inhibition was calculated as log 10 suppression of plaque forming units compared with DMSO vehicle control.
Vero cells were maintained DMEM supplemented with 3% newborn calf serum, 3% bovine growth serum, 2 mM L-glutamine, and P/S. Test compounds were applied to the cells in the presence of 0.05% DMSO. The herpes simplex virus 1 (HSV-1) strain used for screening was a de-identified clinical isolate from the Saint Louis University Hospital passaged once in culture.
Compounds and virus were diluted in phosphate buffered saline (PBS) containing 2% newborn calf serum and 2 mM L-glutamine so that the final concentration of compound was 5 μM. The cells were incubated at 37° C. for 1 hour with the virus containing inoculum, then the inoculum was removed and the wells were washed once in PBS. Compound diluted to 5 μM in supplemented DMEM was added and cells were incubated at 37° C. for an additional 23 hours. The plates were then microscopically inspected for cytopathic effect (CPE) or toxicity and then frozen at −80° C. Virus titers for wells with limited CPE compared to DMSO vehicle-treated controls were then determined by plaque assay on Vero cells. Each experiment was repeated at least once.

MTT cytotoxicity assay = type: cell-based; details: human; Table 2, HepDES19 cells
Experimental: MTT cytotoxicity assays. 1.0×10^4 HepDES19 cells per well were seeded in 96-well plates and incubated in DMEM with 10% FBS plus 1% P/S, 1% non-essential amino acids, and 1% glutamine. Compounds were diluted in medium to the indicated concentrations plus 1% DMSO and added to cells 24 hours after plating, with each concentration tested in triplicate. Medium containing the compound was refreshed daily for the next two days. Thiazolyl blue tetrazolium bromide (MTT, Sigma-Aldrich) was added to 0.25 mg/mL, the cultures were incubated for 60 minutes, metabolites were solubilized in acidic isopropanol, and absorbance was read at 570 nm.

human RNaseH1 = target: T1, human RNaseH1 (Homo sapiens, UniProt O60930); test: Oligonucleotide-directed RNA cleavage assay, human RNaseH1; type: biochemical; details: for IC50: Table 1, quantitative values
T1 construct: made in house; host or cells: E. coli
T1 sequence (O60930 1-286): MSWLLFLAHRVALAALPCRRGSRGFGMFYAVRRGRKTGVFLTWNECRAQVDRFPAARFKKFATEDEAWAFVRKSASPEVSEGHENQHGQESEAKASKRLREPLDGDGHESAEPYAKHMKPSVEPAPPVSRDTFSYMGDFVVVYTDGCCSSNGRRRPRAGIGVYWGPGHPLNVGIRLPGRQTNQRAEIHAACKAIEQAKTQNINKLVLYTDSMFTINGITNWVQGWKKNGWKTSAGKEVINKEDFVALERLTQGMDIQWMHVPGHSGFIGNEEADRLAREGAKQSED
Text: RNaseH expression and purification.
Oligonucleotide-directed RNA cleavage assay.

HBV RNaseH [1] = target: T2, HBV RNaseH (Hepatitis B virus genotype D subtype ayw, UniProt P03156); test: Molecular beacon RNaseH assay; details: for inhibition in the molecular beacon assay: 2.1 μg purified HBV RNaseH; for Inhibition of HBV RNaseH, Molecular Beacon cleavage assay: Table 3, 0 to 500 μM
Experimental: In this assay, a hairpin DNA oligonucleotide labeled with fluorescein on one end and a quencher on the other is held in a linear conformation by annealing to a complementary RNA; cleavage of the RNA causes the DNA to fold into a hairpin, suppressing fluorescence (FIG. 8A).
The substrate is a hairpin DNA oligonucleotide with a 5′ fluorescein reporter and a 3′ black hole quencher annealed to a complementary RNA oligonucleotide. The reaction was initiated by adding 5 mM Mg^++, and fluorescence was monitored at 37° C. with a Synergy 4 96-well plate reader. Inhibition was qualitatively determined as a dose-dependent reduction in the rate of substrate degradation.

HBV RNaseH [2] = target: T2, HBV RNaseH; details: for Inhibition of HBV RNaseH, Oligonucleotide directed cleavage assay: Table 3, compounds at 100, 60 and 20 μM, compounds 1-91 and 138-140 previously reported (Cai et al., 2014)
Experimental: RNaseH expression and purification. […] The enriched extracts were dialyzed into 50 mM HEPES pH 7.3, 300 mM NaCl, 20% glycerol, and 5 mM DTT and stored in liquid nitrogen.
Oligonucleotide-directed RNA cleavage assay. […] This mixture was incubated with test compounds in 50 mM Tris pH 8.0, 190 mM NaCl, 5 mM MgCl2, 3.5 mM DTT, 0.05% NP40, 6% glycerol, and 1% DMSO at 42° C. for 90 minutes. Cleavage products were resolved by denaturing polyacrylamide gel electrophoresis, detected by autoradiography, and quantified using ImageJ. Non-specific background values were determined from the incorrect oligonucleotide negative control lane and subtracted from all experimental values. IC50 values were then calculated with GraphPad Prism using three-parameter log(inhibitor) vs. response non-linear curve fitting with the curve minimum set to zero to reflect background subtraction.
The HBV RNaseH inhibition activity of the 16 previously untested compounds was examined using an oligonucleotide-directed cleavage assay. Compounds were incubated with the HBV RNaseH, a ^32P-labeled RNA substrate plus a complementary DNA oligonucleotide and compounds at 100, 60, and 20 μM and the amount of the RNA cleavage products was measured following resolution on an acrylamide gel.
Briefly, a ^32P-labeled RNA was combined with a DNA oligonucleotide and the RNA:DNA substrate was incubated in the presence of the RNaseH and test compounds in 50 mM tris pH 8.0, 190 mM NaCl, 5 mM MgCl2, 3.5 mM DTT, 0.05% NP40, 6% glycerol, and 1% DMSO at 42° C. for 90 minutes. The products were resolved by gel electrophoresis and detected by audioradioagraphy.

[3] = Lactate dehydrogenase (LDH) release cytotoxicity assay; type: cell-based; details: human, HepDES19 cells, read-out: Toxicity in HepDES19, LDH (CC50)
Experimental: (§1) To further evaluate potential cytotoxicity of these hits, the effect of the compounds was determined for the uptake of neutral red (NR) by the lysosomes and lactate dehydrogenase (LDH) release into the supernatant due to cell membrane permeability. […] Overall, the TI values in Table 3 and FIG. 4 indicate that cytotoxicity was not the cause of antiviral efficacy, although it may have contributed to the apparent efficacy for #84, 85, 90, and 91, which all have TI values below 5.

[4] = Neutral red (NR) cytotoxicity assay; type: cell-based; details: human, HepDES19 cells, read-out: Toxicity in HepDES19, NR (CC50)
Experimental: as §1

HepDES19 cells = test: MTS cytotoxicity assay (CellTiter 96); details: CC50 by MTS assay over EC50
Experimental: (§2) HepDES19 cells were seeded at 1×10^4 cells per well in a 96 well plate in the absence of tetracycline. The test compounds were applied in triplicate to the cells 48 hours later and the cells were incubated for 72 hours. Cell viability was measured using the CellTiter 96 Aqueous Non-Radioactive Cell Proliferation Assay (Promega). [3-(4,5-dimethylthiazol-2-yl)-5-(3-carboxymethoxyphenyl)-2-(4-sulfophenyl)-2H-tetrazolium, inner salt] (MTS) and phenazine methosulfate (PMS) solution at 2 mg/mL MTS and 0.043 mg/mL PMS were added to the medium, the cells were incubated for two hours at 37° C., and absorbance was measured at 490 nm. […] Neutral red was added to the media at a final concentration of 40 μg/mL. Cells were washed with PBS and incubated with neutral red medium for two hours at 37° C. The neutral red medium was removed and the cells were washed with PBS. […] Lactate dehydrogenase (LDH) release was measured using the LDH-cytotoxicity colorimetric assay kit (BioVision). Cells were lysed with 1% Triton-X to provide the high control and DMSO vehicle treatment was the low control. Supernatants were collected and transferred to a fresh 96 well plate, and LDH reaction mixture containing the catalyst and dye solution was added. The reaction was incubated for 15-20 minutes at room temperature in a dark box and absorbance was measured at 490 nm. Percent cytotoxicity was calculated as [(test sample−low control)/([…])]×100.

[5] = MTS cytotoxicity assay (CellTiter 96); details: human
Experimental: as §2

HBV polymerase = target: T3, HBV polymerase (Hepatitis B virus genotype D subtype ayw, UniProt P03156); test: Endogenous polymerase reaction (EPR) in isolated HBV capsids; type: biochemical; details: ddTTP 5.7 μM; for effect on 32P incorporation in EPR: inhibitors at 4× EC50, #138 and #211 at 30 μM
T3 construct: expressed in transfected cells; host or cells: HepDES19 (HepG2 with a stably transfected HBV genotype D genome)
Text: Anti-RNaseH activity is implied from their preferential suppression of the plus-polarity DNA strand (FIG. 4), but strand-preferential inhibition could also result from inhibiting the polymerase also. This is because positive-polarity DNA synthesis can be suppressed both directly by inhibiting the RNaseH enzyme and indirectly by reducing the amount of negative-polarity DNA strand that templates the positive-polarity strand, whereas minus-polarity DNA synthesis can only be suppressed by chain termination. To determine if the efficacy of these compounds was due to inhibition of the HBV polymerase, capsids isolated from HepDES19 cells were tested in the endogenous polymerase reaction (EPR) to measure DNA chain elongation by the HBV polymerase along the HBV nucleic acids within the capsids. Isolated HBV capsids were supplied with dATP, dTTP, dGTP, and [α^32P]dCTP in the presence of inhibitors at 4× their EC50 values; negative control compounds #138 and #211 were tested at 30 μM. 1% DMSO was used as a vehicle control, and ddTTP (5.7 μM) was the positive control polymerase inhibitor. Samples were incubated at 37° C. for 7 hours to permit DNA chain elongation by the encapsidated HBV polymerase. Nucleic acids were purified, resolved on a 0.8% agarose gel and detected by autoradiography. DNAs from HBV capsids treated with the compounds incorporated ^32P similarly to DMSO control (FIG. 5).
HBV cores were harvested from HepDES19 cells grown in the absence of tetracycline for 20 days using polyethylene glycol 8000 precipitation (Guo et al., 2003). Cells were rinsed in PBS and lysed in 1 mL core lysis buffer with 2 μL of protease inhibitor cocktail (Sigma) at room temperature for 10 minutes. Cell lysates were collected and 10 mM CaCl2) was added. The lysate was centrifuged for 5 minutes at 21,000 g, the supernatant was incubated with 150 U of micrococcal nuclease at 37° C. for 60 minutes, and then 27 mM EDTA was added to stop the reaction. 333 μL of 26% PEG8000 was added to precipitate core particles and incubated at 4° C. for 6 hours. The samples were centrifuged at 21,000 g for 20 minutes at 4° C. The supernatant was removed and the pellet was resuspended in 250 μL of 10 mM Tris buffer pH 7.5. Cores were stored at −80° C.
The endogenous polymerase reaction was done using a modified procedure from (Nguyen et al., 2007). […] These nucleic acids were dissolved in tris-EDTA buffer, resolved on a 0.8% agarose gel, transferred to a HyBondN membrane, and detected by autoradiography. Band intensities for each experiment were quantified using Image J and percent inhibition was calculated relative to the DMSO-treated reactions. Statistical significance of variation in band intensities was evaluated using a one-way ANOVA with a Dunnett post hoc analysis, with p=0.05 indicating significance.

[6] = HepDES19, read-out: HBV replication inhibition (EC50, μm)

T2 sequence (P03156 671-832): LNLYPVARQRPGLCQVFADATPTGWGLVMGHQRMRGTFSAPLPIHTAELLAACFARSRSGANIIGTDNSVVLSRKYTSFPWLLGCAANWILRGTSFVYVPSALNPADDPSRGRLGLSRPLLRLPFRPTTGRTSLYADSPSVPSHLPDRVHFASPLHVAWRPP
T3 sequence (P03156 whole entry): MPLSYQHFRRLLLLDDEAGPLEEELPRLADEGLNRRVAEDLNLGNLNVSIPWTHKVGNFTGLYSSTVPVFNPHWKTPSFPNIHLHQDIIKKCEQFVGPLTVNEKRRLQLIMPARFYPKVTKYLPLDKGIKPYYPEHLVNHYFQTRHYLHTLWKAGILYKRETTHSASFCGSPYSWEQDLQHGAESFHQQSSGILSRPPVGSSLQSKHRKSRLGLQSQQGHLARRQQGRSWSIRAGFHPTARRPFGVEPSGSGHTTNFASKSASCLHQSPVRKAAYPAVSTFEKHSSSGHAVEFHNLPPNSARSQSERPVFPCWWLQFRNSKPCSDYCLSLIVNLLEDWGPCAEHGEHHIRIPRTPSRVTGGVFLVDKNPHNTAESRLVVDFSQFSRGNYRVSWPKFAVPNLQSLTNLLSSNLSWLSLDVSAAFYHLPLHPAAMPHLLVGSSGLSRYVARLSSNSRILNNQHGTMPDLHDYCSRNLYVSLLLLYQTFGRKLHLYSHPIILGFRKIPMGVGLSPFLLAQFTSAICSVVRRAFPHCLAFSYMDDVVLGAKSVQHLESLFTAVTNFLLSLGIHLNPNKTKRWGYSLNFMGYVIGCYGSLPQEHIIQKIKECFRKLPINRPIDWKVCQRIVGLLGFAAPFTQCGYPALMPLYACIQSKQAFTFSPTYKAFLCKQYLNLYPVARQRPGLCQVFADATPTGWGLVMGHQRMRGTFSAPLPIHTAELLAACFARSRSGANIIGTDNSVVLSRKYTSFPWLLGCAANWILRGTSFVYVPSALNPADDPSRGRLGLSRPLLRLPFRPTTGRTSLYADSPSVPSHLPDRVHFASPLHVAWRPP

| SMILES | EC50 (HBV replication; [6]) [µM] | log reduction at 5 µM (HSV-1) | CC50 (MTT cytotoxicity assay) [µM] | IC50 (human RNaseH1) [µM] | inhibition in the molecular beacon assay (HBV RNaseH [1]) | Inhibition of HBV RNaseH, Molecular Beacon cleavage assay (HBV RNaseH [1]) | HBV RNaseH (HBV RNaseH [2]; Table 1, qualitative inhibition in biochemical assay) | Inhibition of HBV RNaseH, Oligonucleotide directed cleavage assay (HBV RNaseH [2]) | inhibition of RNA cleavage by HBV RNaseH (HBV RNaseH [2]; compounds at 100, 60 and 20 μM) | CC50 at 72 h [3] [µM] | EC50 (HBV replication; Table 2, HepDES19 cells, read-out: EC50) [µM] | CC50 at 72 h [4] [µM] | TI (therapeutic index, CC50(MTS)/EC50) (HepDES19 cells) | CC50 at 72 h [5] [µM] | Human RNaseH1 (human RNaseH1; Table 1, qualitative inhibition) | HBV replication inhibition / activity (HBV replication; HepDES19 cells) | HBV replication inhibition (qualitative) (HBV replication; Table 3, qualitative screen at 20 μM) | effect on 32P incorporation in EPR (HBV polymerase) | reduction of DNA elongation in EPR (HBV polymerase; 7 hours, 37° C.) [%] |
| --- | --- | --- | --- | --- | --- | --- | --- | --- | --- | --- | --- | --- | --- | --- | --- | --- | --- | --- | --- |
| CCN(CC)C(=O)C1C(=O)N(O)C(=O)c2ccccc21 (stereo not shown) [Compound 83] | 2.3 ± 1.6 | < 1 | > 100 | 3.4 | inhibited | + (Dose-dependent inhibition at ≤500 μM) | +/− | − (No inhibition detected at 100 μM) | negative | – | – | – | – | – | – | – | – | – | – |
| O=C(NCc1ccc(F)cc1)C1C(=O)N(O)C(=O)c2cc(Cl)ccc21 (stereo not shown) [Compound 87] | 4.5 ± 3.7 | < 1 | 37 | – | – | − (No inhibition detected at 500 μM) | – | − (No inhibition detected at 100 μM) | – | 52 ± 15 | 1.6 | 24 ± 1 | 8.2 | 37 ± 17 | +++ (detectable inhibition at 10 μM) | – | – | – | – |
| O=C(Nc1ccc(F)cc1)C1C(=O)N(O)C(=O)c2ccccc21 (stereo not shown) [Compound 91] | 4.6 ± 1 | < 1 | – | 8.7 | – | − (No inhibition detected at 500 μM) | – | − (No inhibition detected at 100 μM) | – | – | – | – | – | – | – | – | – | – | – |
| CC1CC(=O)N(O)C(COc2ccc(Oc3ccc(Cl)cc3)cc2)C1 (stereo not shown) [Compound 211, Rilopirox, reference compound] | – | < 1 | – | – | had no effect on the rate of substrate degradation | − (No inhibition detected at 500 μM) | – | − (No inhibition detected at 100 μM) | – | – | – | – | – | – | – | inactive | − (No inhibition detected at 20 μM) | None of the HBV inhibitors or the two negative control compounds (#138 and 211) significantly altered incorporation | – |
| Cc1cn([C@H]2CC[C@@H](COP(=O)(O)OP(=O)(O)OP(=O)(O)O)O2)c(=O)[nH]c1=O [ddTTP] | – | – | – | – | – | – | – | – | – | – | – | – | – | – | – | – | – | strongly inhibited | ~90 |
